The values below are quoted from earlier work in patent publication US11559485B2 (NANOCOPOEIA, LLC, priority 2020, dated 2023).

For this data set the following is noted: low/moderate aqueous solubility and low permeability.

Structures can show the parent of a compound that is named as a salt.

Regarding `Cc1cn(-c2cc(NC(=O)c3ccc(C)c(Nc4nccc(-c5cccnc5)n4)c3)cc(C(F)(F)F)c2)cn1` [Nilotinib monohydrochloride monohydrate], the BCS class entry is on record as “Class IV”.
